From PubChem BioAssay (NCI)
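Interpolation was linear, between the two tested concentrations surrounding the appropriate level; five concentrations were tested over 48 hours in 96-well plates. At the TGI there is no net growth.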

Key:
Test in all cases: NCI tumour cell line growth inhibition, 48 h
786-0 renal = test system: 786-0 renal
UACC-257 melanoma = test system: UACC-257 melanoma
SF-539 CNS = test system: SF-539 CNS
DU-145 prostate = test system: DU-145 prostate
MOLT-4 leukemia = test system: MOLT-4 leukemia
RPMI-8226 leukemia = test system: RPMI-8226 leukemia
HT29 colon = test system: HT29 colon
RXF 393 renal = test system: RXF 393 renal
SNB-75 CNS = test system: SNB-75 CNS
SNB-78 CNS = test system: SNB-78 CNS
KM20L2 colon = test system: KM20L2 colon
XF 498 CNS = test system: XF 498 CNS

Structure (SMILES) | TGI (786-0 renal) [µM] | TGI (UACC-257 melanoma) [µM] | TGI (SF-539 CNS) [µM] | TGI (DU-145 prostate) [µM] | TGI (MOLT-4 leukemia) [µM] | TGI (RPMI-8226 leukemia) [µM] | TGI (HT29 colon) [µM] | TGI (RXF 393 renal) [µM] | TGI (SNB-75 CNS) [µM] | TGI (SNB-78 CNS) [µM] | TGI (KM20L2 colon) [µM] | TGI (XF 498 CNS) [µM]
COc1cc(C2SCC(=O)N2c2ccc(Cl)cc2)cc(I)c1O (stereo not given) | > 100 | > 100 | > 100 | > 100 | > 100 | > 100 | > 100 | > 100 | > 100 |  |  | 
CSc1nc(O)c(/C=C2\C=Nc3ccccc32)[nH]1 | > 100 | > 100 | > 100 | > 100 | > 100 | > 100 | > 100 | > 100 | > 100 |  |  | 
Cc1ccc(/C=N/Nc2nncc3ccccc23)s1 | > 95.1 | > 100 | > 100 | > 31.6 | > 100 | > 100 | > 100 | > 100 | > 75.9 |  |  | 
CSc1nncc2[nH]cnc12 | > 100 | > 100 | > 100 | > 100 | > 100 | > 100 | > 100 | > 100 | > 100 |  |  | 
COc1cc2c(cc1OC)C(Cc1ccccc1CCCl)=NCC2 | > 100 | > 100 | 48.6 | > 100 | > 100 | 98.1 | > 100 | > 100 | > 100 |  |  | 
O=C(OCC1CCCN2CCCCC12)c1ccncc1 (stereo not given) | > 100 | > 100 | > 100 | > 100 | > 100 | > 100 | > 100 | > 100 | > 100 |  |  | 
CSc1ccc(/C=C2\N=C(c3ccccc3)N(c3nc4c(Cl)cc(Cl)cc4s3)C2=O)cc1 | > 100 | > 100 | > 100 | 93.7 | 49.5 | > 100 | 46.4 | 67.5 | 62 |  |  | 
OCCN=C1c2ccccc2C2C(c3ccccc31)C1c3ccccc3C(=NCCO)c3ccccc3C21 (stereo not given) | 47.2 | 69.2 | 36.5 | 54.3 | 27.6 | 37.2 | 34.8 | 51.8 | 65.9 |  |  | 
COc1cc(/C=C/C(=O)N[C@@H]2C(=O)N3[C@@H]2SC(C)(C)[C@@H]3C(=O)O)cc(OC)c1OC | > 100 | > 100 | > 100 | > 100 | > 100 | > 100 | > 100 | > 100 | > 100 |  |  | 
Cc1ccc(/C=N/NC2=NCCN2)s1 | > 100 | > 100 | > 100 | > 100 | > 100 | > 100 | > 100 | > 100 | > 100 |  |  | 
O=CC1OC(=O)c2cc(O)c(O)c(O)c2-c2c(cc(O)c(O)c2O)C(=O)OC1C(O)C(O)CO (stereo not given) | > 100 | > 100 | > 100 | > 100 | 56.8 | 72.4 | 46.8 | > 100 | > 100 |  |  | 
CC(C)(C)OC(=O)NC(Cc1ccc(OCc2ccccc2)cn1)C(=O)N1CCSCC1 (stereo not given) | > 100 | 82.5 | > 100 | > 100 | 59.1 | 59.1 | > 100 | 88.5 | 76.5 |  |  | 
O=C1OC[C@@H]2Cc3c([nH]c4ccccc34)[C@@H](c3cc(O)c(O)c(O)c3)N12 | 56.1 | 9.73 | 37.9 | > 100 | 85.9 | 65.8 | > 100 | 45.6 | 60.9 |  |  | 
CCOC(=O)C(C)(C)/C=C\C(Cl)=C(Cl)Cl | > 100 | > 100 | > 100 | > 100 | > 100 | > 100 | > 100 | > 100 | > 100 |  |  | 
Nc1nc(N)c2nc(-c3ccco3)cnc2n1 | > 100 | > 100 | > 100 |  | > 100 | > 100 | > 100 | > 100 | 80 | > 100 | > 100 | > 100
Cc1ccc(S(=O)(=O)/N=C(\[O-])C2=C(c3ccccc3)NN(C)c3nc4cccc[n+]4nc32)cc1 | > 100 | > 100 | > 100 | > 100 | > 100 | > 100 | > 100 | > 100 | > 100 |  |  | 
CCc1n[nH]c(=O)n1NC(=O)c1ccccc1C(=O)O | > 100 | > 100 | > 100 | > 100 | > 100 | > 100 | > 100 | > 100 | > 100 |  |  | 
CCN(CC)CCSc1nc2c(c(=N)n1-c1ccccc1)c(=S)n(-c1ccccc1)c(=S)n2-c1ccccc1 | 1.55 | 3.15 | 9.57 | 3.05 | 2.33 | 1.02 | 3.37 | 2.78 | 5.52 |  |  | 
COC(=O)[C@H](Cc1ccccc1)NP(=O)(O)OCC1OC(n2cc(C)c(=O)[nH]c2=O)CC1N=[N+]=[N-] (stereo not given in full) | > 100 | > 100 | > 100 | > 100 | > 100 | > 100 | > 100 | > 100 | > 100 |  |  | 
Cc1ccc(O)c(-c2csc(NCN3CCN(CNc4nc(-c5cc(C)ccc5O)cs4)CC3)n2)c1 | > 100 | > 100 | > 100 | > 100 | > 100 | > 100 | > 100 | > 100 | > 100 |  |  | 
Cc1ccc(Nc2nc(=O)[nH]c(=O)[nH]2)cc1N=[N+]=[N-] | > 100 | > 100 | > 100 | > 100 | > 100 | > 100 | > 100 | > 100 | > 100 |  |  | 
CC1(C)C[C@H](O)[C@H](O)[C@]23C(=O)O[C@H](O)[C@H]2C(C=O)=CC[C@@H]13 | > 100 | > 100 | > 100 | > 100 | > 100 | > 100 | > 100 | > 100 | > 100 |  |  | 
